The subject of one data set is tomato GAME25. The data set can be described thus: In vitro assay of recombinant tomato GAME25 (Sf9 microsomes, NAD+). Conditions: 100 μM substrate, NAD+ 150 μM, pH 7.4, 37° C., 4 hrs; LC-MS. Format: biochemical, Solanum lycopersicum. The procedure:
(§1) For enzyme assay experiments, an additional MS-MS analysis with a collision energy ramp from 20 to 50 eV was performed to identify the structures of the enzymatic reaction products. The solanid-4-en-3-one product was identified based on the comparison of its retention time and MS-MS spectrum to those measured for its corresponding standard. Another three products (tomatid-4-en-3-one, solasod-4-en-3-one and diosgen-4-en-3-one) were putatively assigned as follows: first, elemental composition based on accurate masses and the isotopic pattern was calculated using the MassLynx software. Then the MS-MS fragmentation pattern was analyzed, and the fragments were assigned applying the fragmentation rules for steroid-based compounds.
(§2) Each expression vector construct was co-transfected with the ProGreen GFP linearized baculovirus DNA (AB vector) to generate the recombinant viruses in Spodoptera frugiperda (Sf9) insect cells. Infection efficiency was monitored by fluorescence of recombinant GFP viruses infected cells. Sf9 cells were grown in ESF921, protein free culture medium (Expression Systems). Three days post-infection cells were collected and washed twice in PBS. Microsomal fractions were isolated by suspending the cell pellet in 20 mM potassium phosphate buffer pH 7.25, 20% (v/v) glycerol, 1 mM EDTA and 1 mM DTT. The resuspended cells were sonicated, and the cell debris was removed by centrifugation at 10,000×g for 15 min. The supernatant was further centrifuged at 100,000×g for 60 min. The pellet containing the microsomal fractions was homogenized in lysis buffer. GAME25 was expressed with a myc-tag at the C-terminus. The isolated microsomal fractions were analyzed by SDS-PAGE and immune-blot with c-myc antibodies (A2S Technologies Ltd.).
(§3) The steroidal alkaloid aglycones dehydrotomatidine, solanidine and solasodine as well as their glycosylated forms (i.e. SGAs) α-tomatine, α-solanine, α-chaconine and α-solamargine were used as substrates for GAME25 enzyme assays. In vitro assays for the tomato and potato recombinant GAME25 enzymes were performed as follows: Briefly, microsomal fractions of Sf9 cells expressing tomato or potato GAME25 proteins (0.2 mg total protein was used per reaction) were separately incubated in sodium phosphate buffer (pH 7.4) with 100 μM of each individual substrate (details are mentioned above), DTT (5 mM) and NAD^+ (150 μM) at 37° C. for 4 hrs. The reactions were stopped by addition of 300 μl of 80% methanol and 0.1% formic acid, followed by brief vortex and sonication for 15 min. Finally, the extracts were centrifuged for 15 min at 14,000×g, filtered through 0.22 μm filters, and analyzed by LC-MS (see Plant extracts preparation and targeted profiling of steroidal metabolites section above). Sf9 cells (without the baculovirus vector) microsomes were used in control enzyme reactions.

For the next data set, the system named is SlGAME31. The data set can be described thus: Enzymatic activity assay of recombinant SlGAME31 (hydroxylation of SA/SGAs). The class given is biochemical, Solanum lycopersicum. As for the experimental part:
GAME31 was amplified from cDNA (SEQ ID NO: 17) and cloned into pET28 vector by restriction free (RF) cloning as described previously (Unger et al., 2010, J Struct Biol. 172:34-44).
The resulting plasmids were verified by sequencing and transformed to E. coli BL21 DE3. For isolation of the GAME31-His tagged enzymes, fresh overnight cultures were diluted 1:100 in 1000 ml of LB medium (Formedium) with 50 μg/ml kanamycin and incubated at 37° C. and 250 rpm until an A600 nm of 0.5 was reached. Subsequently, for induction of expression of the recombinant proteins, IPTG was added to a final concentration of […] and the incubation was continued overnight at 16° C. and 250 rpm. Then cells were harvested by centrifugation at 10,000×g and bacteria were lysed by sonication in a buffer (pH 7.4) containing 0.02 M NaH2PO4 0.02 M, 0.5 M NaCl, and SIGMAFAST protease inhibitor tablets (Sigma-Aldrich) and benzonase nuclease (Sigma-Aldrich) according to manufacturer's instructions. Lysed cultures were centrifuged, and the soluble fraction was purified by nickel affinity chromatography which was operated with an AKTA liquid chromatography system (AKTA avant, GE Healthcare) according to the manufacturer's instructions. Proteins were stored at −80° C. until further analysis.
All the SA/SGAs substrates were prepared at a concentration of 1 mg/ml, dissolved in methanol, except dehydrotomatine that was prepared in DMSO. The enzymatic activity was performed according to Kawai et al. (2014) Evolution and diversity of the 2-oxoglutarate-dependent dioxygenase superfamily in plants. Plant J. 78: 328-43. Briefly, the standard full reaction (100 μL) consisted of 10 mM L-ascorbic acid, 10 mM α-ketoglutaric acid, 500 μM FeSO4, 20 μM substrate, 50 mM potassium phosphate buffer (pH 7.5) and purified enzyme. All the components, except the enzyme, were pre-incubated for 10 min at 30° C., after which the reaction was started by addition of the enzyme. After incubation at 30° C. for 1 h, the reaction was stopped by freezing in liquid nitrogen Finally, the reaction was mixed with 300 μL methanol, extracted and analyzed by UPLC-qTOF-MS as described above.

The subject of the next data set is animals and humans. Conditions: studies in animal models; cited from earlier work.
The next data set concerns potato GAME25. The data set can be described thus: In vitro assay of recombinant potato GAME25 (Sf9 microsomes, NAD+). Conditions: 100 μM substrate, NAD+ 150 μM, pH 7.4, 37° C., 4 hrs; LC-MS. The class given is biochemical, Solanum tuberosum. As for the experimental part: as §1, §2, §3

This is an account of results in patent publication US12129475B2, “Glycoalkaloid metabolism enyzymes (GAMES) and uses thereof” (priority 2017, dated 2024).

With `C[C@H]1CC[C@]2(NC1)O[C@H]1C[C@H]3[C@@H]4CC[C@H]5C[C@@H](O[C@@H]6O[C@H](CO)[C@H](O[C@@H]7O[C@H](CO)[C@@H](O)[C@H](O[C@@H]8OC[C@@H](O)[C@H](O)[C@H]8O)[C@H]7O[C@@H]7O[C@H](CO)[C@@H](O)[C@H](O)[C@H]7O)[C@H](O)[C@H]6O)CC[C@]5(C)[C@H]4CC[C@]3(C)[C@H]1[C@@H]2C` [α-tomatine], the “activity with substrate / product formed” value in the data set with tomato GAME25 and in the data set on potato GAME25 was “no activity” throughout. In addition, the hydroxylation of substrate entry with SlGAME31 (absence of iron) is reported as “minor amounts of hydroxytomatine were still generated”; in the data set with SlGAME31 (full reaction: ketoglutaric acid, ascorbic acid, FeSO4, 20 μM substrate, 30° C., 1 h), “forming hydroxytomatine”; in the data set on SlGAME31 (removal of either cofactor (ketoglutaric or ascorbic acid)), “lack of activity”. For the same compound, in the data set with animals and humans, the “toxicity to animals and humans compared to SGAs possessing the C-5,6 double bond (e.g. α-chaconine and α-solanine)” value is reported as “much less toxic”.
